# Experimental data published in patent US20040086901A1, “Database for analyzing gene function and method of analyzing gene function by dspa” (priority 2000, published 2004).
# Non-standard residues stand in square brackets, D forms with d. Residues, ends and D or L forms follow the SMILES beside them. Nle = CCCC[C@H](N)C(=O)O
# Experiments:
# Format in all cases: cell-based, mouse
# [1] = system: NIH3T3 cells overexpressing Cip-1; assay: MTT cell viability, Cip-1 overexpressing cells vs parental line; details: Cip-1 high-expressing cells / parental cell line, 3 to 4 days
# Protocol: (§1) With regard to the function-known genes, the genes shown in the left column of Table 2 were used. With regard to the drugs, those shown in Table 1 were dissolved in DMSO to an extent of 100-fold of the maximum concentration for the search of the drugs and used. With regard to the cells, incubated NIH3T3 or ras-NIH3T3 cells were used.
# (§2) Full-length cDNA of each function-known genes was incorporated into an expression vector (pRc-CMV, etc.) and transfected into NIH3T3 cells by a common method. Transformed cells were isolated using the resistance to G-418 as an index and the expression of the transfected gene in each cell was investigated by Western blotting method to select a highly expressing line.
# (§3) Cell viabilities were measured according to the following procedures.
# (§4) 1) From the 2nd to the 11th rows of a 96-well plate were filled with DMEM (50 μl). The 12th row was filled with 100 μl of DMEM.
# (§5) 2) The 1st row was filled with 98 μl of DMEM.
# (§6) 3) Drugs (2 μl each) were added into the 1st row.
# (§7) 4) Continuous double-dilution was conducted from the 1st to the 9th rows. Fifty μl were taken out from the 9th row and discarded. The plate was preserved in a CO2 incubator.
# (§8) 5) Cells (each high-expressing cells and the parental cell line) were detached from the medium using a trypsin solution, suspended in 10% CS-DMEM and transferred to a test tube and cell numbers (cell/ml) were counted.
# (§9) 6) The cells were diluted to a concentration of 1×10^5 cells/ml, and 50 μl of the cell suspension were added to the 1st to the 11th rows of the plate followed by gently stirring.
# (§10) 7) The plate was transferred to the CO2 incubator and incubated for 3 to 4 days.
# (§11) 8) MTT (5 mg/ml in PBS) (10 μl) was added to the 1st to the 12th rows of the plate and incubated in the CO2 incubator at 37° C. for 4 hours.
# (§12) 9) A reaction stop solution (0.04N HCl in isopropanol) (150 μl) was added followed by mixing well and being allowed to stand at room temperature for about 2 hours.
# (§13) 10) Coloration of formazan which was a metabolite of the MTT dye was measured using a microplate reader. The measurement wavelength was 574 nm and the reference wavelength was 655 nm. The 10th and the 11th rows of the plate were 100% controls and the 12th row was a 0% control.
# (§14) As an index for the sensitivity of highly gene-expressing cells and the parental cell line to various drugs, each of the IC40 values thereof was specified and ratios of the IC40 values were calculated. […] After that, logarithmic values of ratios of IC40 values were calculated from each gene.
# [2] = system: NIH3T3 cells overexpressing T.Tn; assay: MTT cell viability, T.Tn overexpressing cells vs parental line; details: T.Tn high-expressing cells / parental cell line, 3 to 4 days
# Protocol: as §1, §2, §3, §4, §5, §6, §7, §8, §9, §10, §11, §12, §13, §14
# [3] = system: NIH3T3 cells overexpressing Gluco-corticoid-R; assay: MTT cell viability, Gluco-corticoid-R overexpressing cells vs parental line; details: Gluco-corticoid-R high-expressing cells / parental cell line, 3 to 4 days
# Protocol: as §1, §2, §3, §4, §5, §6, §7, §8, §9, §10, §11, §12, §13, §14
# [4] = system: NIH3T3 cells overexpressing ERK-DN; assay: MTT cell viability, ERK-DN overexpressing cells vs parental line; details: ERK-DN high-expressing cells / parental cell line, 3 to 4 days
# Protocol: as §1, §2, §3, §4, §5, §6, §7, §8, §9, §10, §11, §12, §13, §14
# [5] = system: NIH3T3 cells overexpressing RhoA-DN; assay: MTT cell viability, RhoA-DN overexpressing cells vs parental line; details: RhoA-DN high-expressing cells / parental cell line, 3 to 4 days
# Protocol: as §1, §2, §3, §4, §5, §6, §7, §8, §9, §10, §11, §12, §13, §14
# [6] = system: NIH3T3 cells overexpressing CaMKIIa-Active; assay: MTT cell viability, CaMKIIa-Active overexpressing cells vs parental line; details: CaMKIIa-Active high-expressing cells / parental cell line, 3 to 4 days
# Protocol: as §1, §2, §3, §4, §5, §6, §7, §8, §9, §10, §11, §12, §13
# As an index for the sensitivity of highly gene-expressing cells and the parental cell line to various drugs, each of the IC40 values thereof was specified and ratios of the IC40 values were calculated. FIG. 2 and FIG. 3 are the examples where ratios of IC40 values were calculated from a curve showing the dependency on the concentration of the chemical versus the viability. After that, logarithmic values of ratios of IC40 values were calculated from each gene.
Compound,logarithmic value of ratio of IC40 values [1],logarithmic value of ratio of IC40 values [2],logarithmic value of ratio of IC40 values [3],logarithmic value of ratio of IC40 values [4],logarithmic value of ratio of IC40 values [5],logarithmic value of ratio of IC40 values [6]
CNc1ccc2oc(C[C@H]3O[C@@]4(CC[C@H]3C)O[C@H]([C@H](C)C(=O)c3ccc[nH]3)[C@H](C)C[C@H]4C)nc2c1C(=O)O [A23187],0.04,−0.22,0.28,0.00,0.03,0.18
sodium vanadate,0.00,0.46,0.03,0.00,−0.12,0.01
CC(C)(C)C(=O)Oc1ccc(S(=O)(=O)Nc2ccccc2C(=O)NCC(=O)O)cc1 [compound 5046],−0.14,,,,,0.35
"C[C@@H]1O[C@@H](O[C@H]2C[C@@H](O)[C@]3(CO)[C@H]4[C@H](O)C[C@]5(C)[C@@H](C6=CC(=O)OC6)CC[C@]5(O)[C@@H]4CC[C@]3(O)C2)[C@H](O)[C@H](O)[C@H]1O [Ouabain, ouabain]",0.16,0.28,0.04,0.48,0.45,0.60
"CCCC[C@@H](C)/C=C(C)/C=C(\C)C(=O)NC1=C[C@@](O)(/C=C/C=C/C=C/C(=O)NC2=C(O)CCC2=O)[C@@H]2O[C@@H]2C1=O [Manumycin, manumycin]",0.12,0.28,0.09,−0.05,−0.13,0.03
"C=C[C@]1(C)CC[C@@H](C(=C)C)C[C@H]1C(=C)C [b-elemene, β-elemene]",0.00,−0.14,0.00,0.33,,
"O=[As]O [NaAsO2, sodium arsenite]",0.30,−0.05,0.16,0.16,0.00,0.02
COC(=O)[C@@]1(O)C[C@H]2O[C@]1(C)n1c3ccccc3c3c4c(c5c6ccccc6n2c5c31)C(=O)NC4 [K252a],,0.00,0.13,0.05,0.28,0.10
COc1ccc2c(c1)CC[C@@H]1[C@@H]2CC[C@]2(C)[C@@H](NCCCCCCN3C(=O)C=CC3=O)CC[C@@H]12 [U73122],0.08,−0.26,0.05,0.00,−0.35,0.00
CCCC[C@@H](C=O)NC(=O)[C@H](CC(C)C)NC(=O)[C@H](CC(C)C)NC(C)=O [ALLN] (Ac-Leu-Leu-[Nle]-aldehyde),0.18,0.48,0.12,0.00,0.00,0.20
"Nc1nc2nc[nH]c2c(=S)[nH]1 [6-TG, 6-thioguanine]",0.47,0.00,0.09,,0.41,0.62
